Measured values taken from patent US20020081733A1, “METHOD TO PREPARE DRUG-RESISTANT, NON-MALIGNANT HEMATOPOIETIC CELLS” (priority 1998, published 2002).

Assays:
CML and NL progenitors = assay: Taxol sensitivity of NL and CML cells (methylcellulose / liquid culture then LTC); assay type: cell-based, human; details: increasing concentrations of taxol; FIG. 2C, 2D
Method: (§1) FIG. 2. Drug sensitivity of untransduced cells. A) NL and CML 34^+DR^+ cells were plated in a serum-free methylcellulose assay with increasing MTX concentrations to determine the MTX sensitivity of CFC. B) NL 34^+DR^− cells (LTC-IC) and CML 34^+DR^+ (Ph^+ LTC-IC) cells were incubated for 1 week in serum-free medium and cytokines with increasing MTX concentrations and then replated in LTC for 5 weeks. The number of MTX resistant LTC-IC was determined by replating LTC derived progeny in methylcellulose without […]. C) NL and CML 34^+DR^+ cells were plated directly in methylcellulose with increasing concentrations of taxol. D) NL 34^+DR^− cells (LTC-IC) and CML 34^+DR^+ (Ph^+LTC-IC) were plated in liquid culture for 7 days with increasing concentrations of taxol and then replated in LTC.
To determine the taxol sensitivity of NL and CML cells, NL and CML 34^+DR^+ and 34^+DR^− cells were plated either in liquid culture for 7 days with increasing concentrations of taxol and then replated in LTC (FIG. 2D). NL and CML cells were also plated directly in methylcellulose with increasing concentrations of taxol (FIG. 2C).

[1] = tested on: CML 34^+DR^+ CFC and LTC-IC; assay: MTX sensitivity of NL and CML CFC and LTC-IC (serum-free methylcellulose assay / LTC); assay type: cell-based, human; details: increasing MTX concentrations, FIG. 2A, 2B
Method: as §1
To determine the MTX sensitivity of normal (NL) and CML CFC cells, NL and CML 34^+DR^+ cells were plated in a serum-free methylcellulose assay with increasing MTX concentrations (FIG. 2A). To determine the MTX sensitivity of NL and CML LTC-IC cells, NL 34^+DR^− cells (LTC-IC) and CML 34^+DR^+ (Ph^+ LTC-IC) cells were also incubated for I week in serum-free medium and cytokines, with increasing MTX concentrations. The cells were then replated in LTC for 5 weeks. The number of MTX resistant LTC-IC was determined by replating LTC derived progeny in methylcellulose assay without MTX (FIG. 2B).

Compound	taxol sensitivity of CML versus NL progenitors (CML and NL progenitors)	MTX sensitivity of CML 34+DR+ CFC and LTC-IC relative to NL 34+DR+ CFC and NL 34+DR− LTC-IC [1]
CC(=O)O[C@H]1C(=O)[C@@]2(C)[C@H]([C@H](OC(=O)c3ccccc3)[C@]3(O)C[C@H](OC(=O)[C@H](O)[C@@H](NC(=O)c4ccccc4)c4ccccc4)C(C)=C1C3(C)C)[C@]1(OC(C)=O)CO[C@@H]1C[C@@H]2O [taxol]	equal sensitivity	–
CN(Cc1cnc2nc(N)nc(N)c2n1)c1ccc(C(=O)N[C@@H](CCC(=O)O)C(=O)O)cc1 [MTX, methotrexate]	–	at least equally sensitive
